This is an account of results in patent publication US20200276181A1, “THIENOISOQUINOLINES AND THEIR DERIVATIVES FOR TARGETING TUBULIN, CH-TOG, AURORA A KINASE, TPX2, CDK5RAP2 AND/OR ASPM” (VALORBEC, SEC, priority 2017, published 2020).

Assay [1] concerns A549 cells. In words: IC50 of derivatives (Table 5). The format is cell-based, human. Conditions: Table 5, cell line only named in b213 (A549).
The test system of assay [2] is HeLa (cervical adenocarcinoma) cells. The experiment in a line: Cell viability IC50 (Table 3). The format is cell-based, human. As to the method: (§1) To date, 30 variants with different structural modifications have been made. […] In particular, it is shown that C75 causes death in multiple cancer cells with IC50 values in the 100-400 nM range, including breast cancers (MCF7, BT549), lung cancer (A549), colorectal cancer (HCT116) in addition to HeLa cells (cervical cancer).

Assay [3] concerns MCF-7 (mammary gland carcinoma) cells. In words: Cell viability IC50 (Table 3). Type of assay: cell-based, human. The conditions noted are these: MCF-7 cells. The procedure:
as §1

The subject of assay [4] is HeLa cells with lower levels of endogenous ch-TOG (ch-TOG RNAi). In words: Spindle phenotypes with ch-TOG RNAi. The format is cell-based, human. Conditions: 200 nM C75 or 20 nM colchicine. An excerpt:
FIG. 7B) is a bar graph showing the proportion of phenotypes of the HeLa cells observed in the different conditions listed in 7A) (bipolar spindles in light grey; bipolar spindles with misaligned chromosomes in dark grey; multipolar/fragmented spindles in hatched lines; monopolar spindles in black).

The subject of assay [5] is HeLa cells with lower levels of endogenous MCAK (MCAK RNAi). The experiment in a line: Spindle phenotypes with MCAK RNAi. The format is cell-based, human. The conditions noted are these: 300 nM C75 or 30 nM colchicine. An excerpt:
FIG. 8B) is a bar graph showing the proportion of spindle phenotypes in HeLa cells treated as in 8A).
Since this is unique to C75, and ch-TOG RNAi was previously shown to be suppressed (partially) by MCAK RNAi, supporting C75's role in targeting ch-TOG or a component of the pathway.

The subject of another assay is HeLa cells in metaphase. In words: Short treatment and washout, spindle recovery. Type of assay: cell-based, human. Conditions: 5 minutes treatment, washout, imaged after 40 minutes. The text has this: For each condition, 20,000 cells were counted per replicate (N=3). Line graphs (right) were made to better illustrate the relative changes in the cell cycle phases for the different treatments. Bars show standard deviation. The asterisks indicate the first statistically significant change in the G0/G1 and G2/M populations determined by a two-way ANOVA with a post-hoc Tukey's multiple comparisons test using 95% confidence intervals. FIG. 2B) is a line graph showing the percentage of HCT116 (p53−/−) cells, A549 cells, HeLa cells and H1299 cells in mitosis after treatment with various concentrations of C75 for one population doubling time. All of the cell lines show an increase in the proportion of mitotic cells after treatment with 200 nM C75. The bars indicate standard deviation. […]
C75 was also tested for efficacy in different cancer cell lines. […] To further assess the role of C75 in disrupting spindles, HeLa cells were treated with 300 nM C75 for 4 hours and the spindle phenotypes were analyzed in more detail (FIG. 2E). […] To assess the affect of C75 on centrosomes, HeLa cells were treated with C75 or nocodazole (a drug that causes microtubule depolymerization as a control) for a short period of time (5 minutes), then the drugs were removed and the cells were analyzed for spindle phenotypes (schematic in FIG. 2G). […]

A further assay concerns HFF-1 cells. In words: Viability IC50, high-throughput automated analysis (Table 4). Type of assay: cell-based. Conditions: Homo sapiens, 3 population doubling times. As to the method: (§2) FIG. 1A) is a line graph showing changes in the percentage of viable HFF-1, HeLa, A549 and HCT 116 cells after treatment with a range of C75 concentrations for 3 population doubling times (N=3). […] There were more rounded mitotic cells after C75 treatment in comparison to the control. FIG. 1C) is a line graph showing the percentage of HeLa and HFF1 cells in mitosis after treatment with various concentrations of C75 for 8 hours. The bars indicate standard deviation. FIG. 1D) is a series of images showing cells that were fixed and co-stained for tubulin (microtubules) and DAPI (DNA). Treatment of HeLa cells with 300 nM C75 caused the mitotic spindles to be disorganized, while they were not affected in HFF1 cells. […] The scale bar for the cells is 10 μm. […] FIG. 1F) is a cartoon schematic showing the key features of a metaphase cell.
(§3) The images in FIG. 1B) show fields of view of HeLa cells treated with (dimethyl sulfoxide) DMSO or 500 nM of C75. […] Higher concentrations of C75 caused spindle phenotypes in HFF1 cells, but they were quite different in comparison to HeLa cells (FIG. 1D).

A further assay deals with HeLa cells. The assay is described as above. Type of assay: cell-based. The conditions noted are these: Homo sapiens, 3 population doubling times. As to the method: as §2, §3
A further assay relates to HCT 116 cells. The description is as above. Type of assay: cell-based. The conditions noted are these: Homo sapiens, 3 population doubling times. As to the method: as §2, §3
The test system of assay [6] is A549 cells. Described as above. The format is cell-based. Conditions: Homo sapiens, 3 population doubling times. The procedure:
as §2, §3

Assay [7] relates to MCF7, BT549, A549, HCT116, HeLa cells. The experiment in a line: Viability in cancer vs non-cancer cell lines, summary of Table 3. Type of assay: cell-based, human. The procedure: as §1
The subject of assay [8] is HFF1 (fibroblast) non-cancer cells. The experiment in a line: Cell viability IC50 (Table 3). Conditions: HFF-1 non-cancer cells. The format is cell-based. As to the method: as §1
The subject of assay [9] is BT549 (breast ductal carcinoma) cells. In words: Cell viability IC50 (Table 3). Type of assay: cell-based, human. The procedure: as §1
Assay [10] concerns the target Purified free alpha and beta tubulin dimers (Homo sapiens, UniProt P07437+Q71U36). Conditions: comparison drugs; cited from earlier work.
The subject of assay [11] is A549 cells. The experiment in a line: Spindle morphology, DAPI and tubulin staining. The format is cell-based, human. Conditions: 300 nM, 4 hours. As to the method: FIG. 1A) is a line graph showing changes in the percentage of viable HFF-1, HeLa, A549 and HCT 116 cells after treatment with a range of C75 concentrations for 3 population doubling times (N=3). […] FIG. 1C) is a line graph showing the percentage of HeLa and HFF1 cells in mitosis after treatment with various concentrations of C75 for 8 hours. The bars indicate standard deviation. FIG. 1D) is a series of images showing cells that were fixed and co-stained for tubulin (microtubules) and DAPI (DNA). […] The scale bar for the cells is 10 μm. […] FIG. 1F) is a cartoon schematic showing the key features of a metaphase cell.

A further assay concerns the target Aurora A kinase (Homo sapiens, UniProt O14965). Conditions: in vitro; cited from earlier work.

Aurora A kinase, sequence (O14965 whole entry): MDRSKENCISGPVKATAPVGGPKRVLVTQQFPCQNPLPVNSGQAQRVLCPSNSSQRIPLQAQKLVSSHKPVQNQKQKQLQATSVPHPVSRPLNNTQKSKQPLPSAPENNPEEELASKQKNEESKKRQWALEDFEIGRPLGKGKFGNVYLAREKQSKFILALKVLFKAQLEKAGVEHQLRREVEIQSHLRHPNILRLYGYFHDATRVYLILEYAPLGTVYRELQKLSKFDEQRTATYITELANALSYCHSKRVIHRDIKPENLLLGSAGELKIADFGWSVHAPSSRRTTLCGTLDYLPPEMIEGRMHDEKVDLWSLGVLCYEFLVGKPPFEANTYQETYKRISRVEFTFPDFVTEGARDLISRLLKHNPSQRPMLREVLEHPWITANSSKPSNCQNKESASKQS

Regarding `COc1ccc(S(=O)(=O)N2Cc3ccccc3-c3sccc32)cc1` [Compound C90], the 50% inhibitory concentration (IC50) came to 781 nM with A549 cells [1], 177 nM in [2] and 149 nM in assay [3].

`COc1cc2c(c(OC)c1OC)-c1ccc(OC)c(=O)cc1[C@@H](NC(C)=O)CC2` [colchicine, reference compound]: the “interaction with ch-TOG RNAi, fragmented spindle phenotype” value in assay [4] is “synergistic”. In addition, in assay [5], the “suppression of fragmented spindle phenotype by MCAK RNAi” value is recorded as “not”.

In the case of `COC(=O)Nc1nc2ccc(C(=O)c3cccs3)cc2[nH]1` [nocodazole, reference compound], the “spindles reformed after drug removal” value in the assay with HeLa cells in metaphase was “bipolar spindles reformed”.

With `O=S(=O)(c1cccs1)N1Cc2ccccc2-c2sccc21` [Compound C87], the IC50 with A549 cells [1] (Homo sapiens), in the assay on HFF-1 cells, in the assay with HeLa cells, with HCT 116 cells and with A549 cells [6] was over 1000 nM throughout.

In the case of `COc1ccc(S(=O)(=O)N2Cc3ccccc3-c3sc(I)cc32)cc1` [Compound C207], in assay [7], the “efficacy (effect on viability) in cancer cells vs. non-cancer cells” value was “higher efficacy”. Further, the IC50 in assay [8] stood at 150 nM; in the assay with A549 cells [1] it was 433 nM; in assay [2], 70 nM; in [9] it was 178 nM; in assay [3], 86 nM.

`CC[C@]1(O)C[C@@H]2CN(CCc3c([nH]c4ccccc34)[C@@](C(=O)OC)(c3cc4c(cc3OC)N(C)[C@H]3[C@@](O)(C(=O)OC)[C@H](OC(C)=O)[C@]5(CC)C=CCN6CC[C@]43[C@@H]65)C2)C1` [vinblastine]: the “concentration causing a similar decrease of polymerization” value in assay [10] was about 5 µM.

For the compound `COc1cc(Nc2ncc3c(n2)-c2ccc(Cl)cc2C(c2c(F)cccc2OC)=NC3)ccc1C(=O)O` [Alisertib, reference compound], in the assay on A549 cells [11], the spindle phenotype result was “mitotic arrest and spindle phenotypes similar to what was observed for C75”. Moreover, the “affinity for Aurora A kinase” value at Aurora A kinase was about 1 nM.
